This is an account of results in EP3186387B1, “METHOD OF DETERMINING THE ACTIVITY OF ENZYMES CONVERTING CYTOSINE DERIVATIVES TO URACIL DERIVATIVES IN CELLS, TISSUES AND ORGANISMS” (Univerzita Palackého v Olomouci, priority 2014, dated 2016).

The test concerns HeLa cells. In words: Determination of the deamination activity in adherent HeLa cells: signal of EdU/EdC in DNA, detected by anti-bromodeoxyuridine antibody or click reaction. Conditions: for ratios of EC50 in EdU and EdC (KEdU½/KEdC½): two hours of incubation, without FdU. In kind it is cell-based, Human. From the text: • Figure 1 The metabolism of EdC and EdCMP from the perspective of the deamination activity of some known deaminases in human cells. CDA - 2'-deoxycytidine/cytidine deaminase; dCK - 2'-deoxycytidine kinase; dCMPDA - 2'-deoxycytidine-5'-phosphate deaminase; cdN and mdN - cytosolic and mitochondrial pyrimidine specific 5'-deoxynucleotidase • Figure 2: Schematic depiction of determination of the activity of the enzymes transforming cytosine derivatives into uracil derivatives. • Figure 3: Determination of the deamination activity in HeLa cells using specific antibodies or using a click reaction (Example 1). The figure depicts the dependence of the average intensity of the signals on the used concentrations of EdU or EdC after two hours of incubation with various concentrations of EdU or EdC without the addition of FdU. Two methods were used for the detection of both modified nucleosides: A) detection with a click reaction with an azido dye (Alexa Fluor 488- azide); B) detection using primary anti-bromodeoxyuridine antibody and secondary antibody conjugated with Alexa Fluor 488. The measured intensities of the signals were processed in the Sigma Plot software, in which the curve was constructed and the half of maximal effective concentration (EC50) was determined. It is clear from the course of the graphs that EdC is not likely to be incorporated in the DNA. This was confirmed also by the mutual ratios between the measured values of the intensities obtained by the antibodies and by the click reaction. These ratios were 1.099 for EdU and 1.060 for EdC. […] For the determination, it is also possible to use other measured concentrations, because there was no saturation of the signal even at higher concentrations. • Figure 4 Time curve (Example 1). […] The incorporated nucleosides were detected using a click reaction with azidofluorochrome. • Figure 5: The comparison of the incorporation of FU and FC into HeLa cells when using various concentrations (Example 1). […] EdU was detected with antibodies. […]

With `C#Cc1cn([C@H]2C[C@H](O)[C@@H](CO)O2)c(=O)nc1N` [EdC, 5-ethynyl-2'-deoxycytidine], the “concentration of EdU providing approximately such a signal as 5 µmol.l^-1 EdC” value (EdC around 5 µmol.l^-1, not in the saturation area) is approximately 0.55 µmol/L. Moreover, the “ratios of EC50 in EdU and EdC (KEdU½/KEdC½)” value (detection performed by the antibodies) came to 0.23; the “ratios of EC50 in EdU and EdC (KEdU½/KEdC½)” value (detection performed by the click reaction) was 0.32.
